# From patent US12595230B2, “Substituted 6,7-dihydro-5H-benzo[7]annulene compounds and their derivatives, processes for their preparation and therapeutic uses thereof” (Sanofi, priority 2020, dated 2026)
# Molecular target: T1, ERα (Homo sapiens, UniProt P03372)
# T1 construct: host or cells: MCF7
# T1 sequence (P03372 1-595): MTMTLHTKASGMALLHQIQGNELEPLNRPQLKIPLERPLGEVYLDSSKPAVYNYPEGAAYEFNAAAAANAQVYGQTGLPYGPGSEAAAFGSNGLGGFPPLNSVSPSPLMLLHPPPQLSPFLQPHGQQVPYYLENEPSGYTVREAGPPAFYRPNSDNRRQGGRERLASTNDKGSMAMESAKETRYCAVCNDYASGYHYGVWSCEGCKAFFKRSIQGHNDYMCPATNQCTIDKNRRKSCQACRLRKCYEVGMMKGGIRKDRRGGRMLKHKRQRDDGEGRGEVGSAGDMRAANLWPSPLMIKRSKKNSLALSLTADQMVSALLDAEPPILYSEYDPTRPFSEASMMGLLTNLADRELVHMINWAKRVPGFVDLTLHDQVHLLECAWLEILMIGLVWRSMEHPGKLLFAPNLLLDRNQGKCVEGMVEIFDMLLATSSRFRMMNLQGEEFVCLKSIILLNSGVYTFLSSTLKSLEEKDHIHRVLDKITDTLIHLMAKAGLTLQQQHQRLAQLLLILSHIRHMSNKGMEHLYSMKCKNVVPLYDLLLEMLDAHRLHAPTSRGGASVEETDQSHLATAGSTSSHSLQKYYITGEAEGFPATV
# Assay: Estrogen receptor degradation activity: breast cancer cell ERα in cell western assay (MCF7 cells)
# Assay type: cell-based
# Settings: for % Degradation At 0.3 μM: 4 hours, relative to fulvestrant 0.1 μM positive control; for DC50: 4 hours post compound addition, concentration which degrades 50% of the estrogen receptor, read-out: Degradation IC50
# How it was run: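 Compounds were applied to MCF7 cells in stripped-serum, phenol red-free medium for 4 h at final 0.3–0.0000018 μM, with fulvestrant (0.1 μM) as control. Value: IC50 (nM) for 50% ERα degradation.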
% Degradation At 0.3 μM,DC50,Structure (SMILES)
88%,400 pM,"CC1CCc2cc(C(=O)O)ccc2C(c2ccc(CC3CN(CCCF)C3)cc2)=C1c1ccc(Cl)cc1 (single isomer, unassigned) [Example 328, 18-(4-chlorophenyl)-9-(4-((1-(3-fluoropropyl)azetidin-3-yl)methyl)phenyl)-7-methyl-6,7-dihydro-5H-benzo[7]annulene-3-carboxylic acid]"
92%,400 pM,"Cl.O=C(O)c1ccc2c(c1)CCCC(c1ccc(F)cc1Cl)=C2c1ccc(CC2CN(CCCF)C2)cc1 [Example 8, 8-(2-chloro-4-fluorophenyl)-9-(4-((1-(3-fluoropropyl)azetidin-3-yl)methyl)phenyl)-6,7-dihydro-5H-benzo[7]annulene-3-carboxylic acid]"
85%,400 pM,"Cl.O=C(O)c1ccc2c(c1)CCCC(c1cc(F)ccc1C(F)(F)F)=C2c1ccc(CC2CN(CCCF)C2)cc1 [Example 332, 8-(5-fluoro-2-(trifluoromethyl)phenyl)-9-(4-((1-(3-fluoropropyl)azetidin-3-yl)methyl)phenyl)-6,7-dihydro-5H-benzo[7]annulene-3-carboxylic acid hydrochloride]"
80%,800 pM,"C[C@H]1CC[C@@H](C2=C(c3ccc(CC4CN(CCCF)C4)cc3)c3ccc(C(=O)O)cc3CCC2)CC1 [Example 14, 9-(4-((1-(3-fluoropropyl)azetidin-3-yl)methyl)phenyl)-8-((1s,4s)-4-methylcyclohexyl)-6,7-dihydro-5H-benzo[7]annulene-3-carboxylic acid]"
82%,500 pM,"O=C(O)c1ccc2c(c1)CCCC(c1cccc(CC(F)(F)F)c1)=C2c1ccc(CC2CN(CCCF)C2)cc1 [Example 298, 9-(4-((1-(3-fluoropropyl)azetidin-3-yl)methyl)phenyl)-8-(3-(2,2,2-trifluoroethyl)phenyl)-6,7-dihydro-5H-benzo[7]annulene-3-carboxylic acid]"
93%,500 pM,"Cl.O=C(O)c1ccc2c(c1)CCCC(c1ccc(F)c3c1CCC3)=C2c1ccc(CC2CN(CCCF)C2)cc1 [Example 55, 8-(7-fluoro-2,3-dihydro-1H-inden-4-yl)-9-(4-((1-(3-fluoropropyl)azetidin-3-yl)methyl)phenyl)-6,7-dihydro-5H-benzo[7]annulene-3-carboxylic acid hydrochloride]"
90%,600 pM,"Cc1c(C(=O)O)ccc2c1CCCC(c1ccc(Cl)cc1Cl)=C2c1ccc(CC2CN(CCCF)C2)cc1.Cl [Example 250, 8-(2,4-dichlorophenyl)-9-(4-((1-(3-fluoropropyl)azetidin-3-yl)methyl)phenyl)-4-methyl-6,7-dihydro-5H-benzo[7]annulene-3-carboxylic acid hydrochloride]"
89%,300 pM,"O=C(O)c1ccc2c(c1)CCCC(c1c(F)cccc1C(F)(F)F)=C2c1ccc(CC2CN(CCCF)C2)cc1 [Example 31, 8-(2-fluoro-6-(trifluoromethyl)phenyl)-9-(4-((1-(3-fluoropropyl)azetidin-3-yl)methyl)phenyl)-6,7-dihydro-5H-benzo[7]annulene-3-carboxylic acid]"
92%,200 pM,"O=C(O)c1ccc2c(c1)CCCC(c1ccc(Cl)cc1Cl)=C2c1ccc(CC2CN(CCC(F)F)C2)cc1 [Example 223, 8-(2,4-dichlorophenyl)-9-(4-((1-(3,3-difluoropropyl)azetidin-3-yl)methyl)phenyl)-6,7-dihydro-5H-benzo[7]annulene-3-carboxylic acid]"
93%,400 pM,"O=C(O)c1ccc2c(c1)CCCC(c1ccc(Cl)cc1Cl)=C2c1ccc(CC2CN(CCCF)C2)c(F)c1 [Example 239, 8-(2,4-dichlorophenyl)-9-(3-fluoro-4-((1-(3-fluoropropyl)azetidin-3-yl)methyl)phenyl)-6,7-dihydro-5H-benzo[7]annulene-3-carboxylic acid]"
78%,1700 pM,"O=C(O)c1ccc2c(c1)CCCC(c1ccc(F)cc1Cl)=C2c1ccc(CC2(F)CN(CCCF)C2)cc1 [Example 242, 8-(2-chloro-4-fluorophenyl)-9-(4-((3-fluoro-1-(3-fluoropropyl)azetidin-3-yl)methyl)phenyl)-6,7-dihydro-5H-benzo[7]annulene-3-carboxylic acid]"
100%,180000 pM,"COc1c(C(=O)O)ccc2c1CCCC(c1ccc(F)cc1C)=C2c1ccc(CC2CN(CCCF)C2)cc1 [Example 269, 8-(4-fluoro-2-methylphenyl)-9-(4-((1-(3-fluoropropyl)azetidin-3-yl)methyl)phenyl)-4-methoxy-6,7-dihydro-5H-benzo[7]annulene-3-carboxylic acid]"
95%,1100 pM,"O=C([O-])c1ccc2c(c1)OCCC(c1ccc(F)cc1Cl)=C2c1ccc(CC2CN(CCCF)C2)cc1.[Na+] [Example 264, sodium 4-(2-chloro-4-fluorophenyl)-5-(4-((1-(3-fluoropropyl)azetidin-3-yl)methyl)phenyl)-2,3-dihydrobenzo[b]oxepine-8-carboxylate]"
93%,400 pM,"Cc1c(F)cccc1C1=C(c2ccc(CC3CN(CCCF)C3)cc2)c2ccc(C(=O)O)cc2CCC1 [Example 28, 8-(3-fluoro-2-methylphenyl)-9-(4-((1-(3-fluoropropyl)azetidin-3-yl)methyl)phenyl)-6,7-dihydro-5H-benzo[7]annulene-3-carboxylic acid]"
86%,400 pM,"Cc1cc(Cl)ccc1C1=C(c2ccc(CC3CN(CCC(F)F)C3)cc2)c2ccc(C(=O)O)cc2CCC1 [Example 282, 8-(4-chloro-2-methylphenyl)-9-(4-((1-(3,3-difluoropropyl)azetidin-3-yl)methyl)phenyl)-6,7-dihydro-5H-benzo[7]annulene-3-carboxylic acid]"
90%,300 pM,"O=C(O)c1ccc2c(c1)CCCC(c1cc(F)cc(F)c1)=C2c1ccc(CC2CN(CCCF)C2)cc1 [Example 266, 8-(3,5-difluorophenyl)-9-(4-((1-(3-fluoropropyl)azetidin-3-yl)methyl)phenyl)-6,7-dihydro-5H-benzo[7]annulene-3-carboxylic acid]"
89%,300 pM,"O=C(O)c1ccc2c(c1)CCCC(c1ccccc1Cl)=C2c1ccc(CC2CN(CCCF)C2)cc1 [Example 3, 8-(2-chlorophenyl)-9-(4-((1-(3-fluoropropyl)azetidin-3-yl)methyl)phenyl)-6,7-dihydro-5H-benzo[7]annulene-3-carboxylic acid]"
83%,700 pM,"O=C(O)c1ccc2c(c1)CCCC(c1cccc(C(F)(F)F)c1Cl)=C2c1ccc(CC2CN(CCC(F)(F)F)C2)cc1 [Example 257, 8-(2-chloro-3-(trifluoromethyl)phenyl)-9-(4-((1-(3,3,3-trifluoropropyl)azetidin-3-yl)methyl)phenyl)-6,7-dihydro-5H-benzo[7]annulene-3-carboxylic acid]"
93%,400 pM,"Cc1c(C2=C(c3ccc(CC4CN(CCC(F)F)C4)cc3)c3ccc(C(=O)O)cc3CCC2)ccc(Cl)c1F [Example 292, 8-(4-chloro-3-fluoro-2-methylphenyl)-9-(4-((1-(3,3-difluoropropyl)azetidin-3-yl)methyl)phenyl)-6,7-dihydro-5H-benzo[7]annulene-3-carboxylic acid]"
86%,600 pM,"Cc1c(Cl)cccc1C1=C(c2ccc(CC3CN(CCC(F)(F)F)C3)cc2)c2ccc(C(=O)O)cc2CCC1 [Example 260, 8-(3-chloro-2-methylphenyl)-9-(4-((1-(3,3,3-trifluoropropyl)azetidin-3-yl)methyl)phenyl)-6,7-dihydro-5H-benzo[7]annulene-3-carboxylic acid]"
94%,600 pM,"Cl.O=C(O)c1ccc2c(c1)CCCC(c1cccc3c1CCC3(F)F)=C2c1ccc(CC2CN(CCCF)C2)cc1 [Example 54, 8-(1,1-difluoro-2,3-dihydro-1H-inden-4-yl)-9-(4-((1-(3-fluoropropyl)azetidin-3-yl)methyl)phenyl)-6,7-dihydro-5H-benzo[7]annulene-3-carboxylic acid hydrochloride]"
90%,800 pM,"Cc1cc(Cl)ccc1C1=C(c2ccc(CC3CN(CCCF)C3)cc2)c2ccc(C(=O)O)cc2OCC1 [Example 263, 4-(4-chloro-2-methylphenyl)-5-(4-((1-(3-fluoropropyl)azetidin-3-yl)methyl)phenyl)-2,3-dihydrobenzo[b]oxepine-8-carboxylic acid]"
91%,700 pM,"O=C(O)c1ccc2c(c1)CCCC(c1cccc(F)c1C(F)F)=C2c1ccc(CC2CN(CCCF)C2)cc1 [Example 296, 8-(2-(difluoromethyl)-3-fluorophenyl)-9-(4-((1-(3-fluoropropyl)azetidin-3-yl)methyl)phenyl)-6,7-dihydro-5H-benzo[7]annulene-3-carboxylic acid]"
